How the values were obtained:
female NMRI mice = test: Anorectic action: cumulative milk consumption after 24 h feed removal; format: in vivo; conditions: feed removed 24 h, dose 20 mg/kg (ip or po, route not specified)
Method: The anorectic action was tested on female NMRI mice. After removal of feed for 24 hours, the preparation to be tested was administered intraperitoneally (ip) or by gavage (po). The animals were housed singly and, with free access to drinking water, they were offered evaporated milk 30 minutes after administration of the preparation. The consumption of evaporated milk was determined and the general behavior of the animals was monitored every half an hour for 7 hours. The measured milk consumption was compared to that of vehicle-treated control animals.

CS(=O)(=O)C1(F)Cc2cc(Cl)ccc2C1=O (stereo not drawn) [Example 1, 5-Chloro-2-fluoro-2-methanesulfonylindan-1-one]
Reduction in cumulative milk consumption as % of the control (female NMRI mice; compared with vehicle-treated control animals): 48% | cumulative milk consumption by treated animals (female NMRI mice; evaporated milk offered 30 min after administration, monitored for 7 hours): 5/2.00 ml | melting point: 150 °C
